Assays:
[1] = Ex-vivo mouse plasma stability study of ^177Lu-labeled compounds; assay type: in vitro ADME; conditions: 37° C.
Experimental: Plasma Stability Study (Mouse and Human)
Mouse blood was collected via cardiac puncture of the left ventricle. Blood was placed into heparin-coated microfuge tubes and then centrifuged at 3500 rpm for 10 min to separate plasma for stability studies. Human plasma was purchased directly.
At each time point (0, 1, 2, 4, 24, 48 72 h), an aliquot of 25 μL sample was taken and mixed with 100 μL methanol containing 1% formic acid, vertex for 30-60 sec, then centrifuged at 20000 rpm for 10 min. 100 μL supernatant was collected and diluted with 40 μL H2O. 100 μL of the resulting mixture was injected to radio-HPLC for stability assessment, as shown examples FIG. 2 and FIG. 3. The best-fit T½ value of test compounds were calculated by fitting the data with linear or non-linear regression using GraphPad Prism 8.0.1.

[2] = system: PC-3 PIP tumor-bearing mice; assay: Biodistribution study in SCID mice bearing PC3-PIP tumor; assay type: in vivo, mouse; conditions: PC3 PIP tumor-bearing mice
Experimental: Biodistribution Study in SCID Mice Bearing PC3-PIP Tumor
Severe combined immunodeficient (ICR-SCID) mice from the Institute of Cancer Research (Taconic Farms, Germantown, NY) were utilized for these studies. […] These mice received bilateral subcutaneous rear flank injections of approximately 10×10^6 PC-3 PIP cells (prostate cancer cell PC-3 stably expressing human PSMA) suspended in 100 μL of 0.9% NaCl. […] The tissues and organs were weighed, counted in a PerkinElmer Wizard 3 automatic γ counter, and the percent injected dose (% ID) and % ID/g of each organ or tissue were calculated, as shown in Tables 5-24 and FIG. 1 and FIG. 2.

PSMA = biological target: T1, PSMA (Homo sapiens, UniProt Q04609); assay: Cell-based radioligand competitive binding assay (^125I-C-8, LNCaP cells); conditions: for Relative Binding Affinity: C-1 = 1.00
T1 construct: host or cells: LNCaP cells
Experimental: The culture medium was replaced with fresh medium every 2-3 days. Experiments were performed with cells at 70-80% confluence.
The final volume in each well was maintained at 200 μL and insufficient volume was adjusted by the binding buffer.

LNCap tumor-bearing mice = assay: Biodistribution study in CB-17 SCID mice bearing LNCap tumor; assay type: in vivo, mouse; conditions: LNCap tumor-bearing mice
Experimental: Biodistribution Study in CB-17 SCID Mice Bearing LNCap Tumor
All animal care and experimental procedure were performed by following the animal protocols approved by the ethics committee of China Institute of Radiation Protection. The CB-17 SCID mice (Charles River, Beijing) were utilized for these studies. […] These mice received subcutaneous rear flank injections of approximately 4×10^6 LNCap cells suspended in 200 μL of phosphate-buffered saline (PBS) and Matrigel (Corning) (1/1).

T1 sequence (Q04609 whole entry): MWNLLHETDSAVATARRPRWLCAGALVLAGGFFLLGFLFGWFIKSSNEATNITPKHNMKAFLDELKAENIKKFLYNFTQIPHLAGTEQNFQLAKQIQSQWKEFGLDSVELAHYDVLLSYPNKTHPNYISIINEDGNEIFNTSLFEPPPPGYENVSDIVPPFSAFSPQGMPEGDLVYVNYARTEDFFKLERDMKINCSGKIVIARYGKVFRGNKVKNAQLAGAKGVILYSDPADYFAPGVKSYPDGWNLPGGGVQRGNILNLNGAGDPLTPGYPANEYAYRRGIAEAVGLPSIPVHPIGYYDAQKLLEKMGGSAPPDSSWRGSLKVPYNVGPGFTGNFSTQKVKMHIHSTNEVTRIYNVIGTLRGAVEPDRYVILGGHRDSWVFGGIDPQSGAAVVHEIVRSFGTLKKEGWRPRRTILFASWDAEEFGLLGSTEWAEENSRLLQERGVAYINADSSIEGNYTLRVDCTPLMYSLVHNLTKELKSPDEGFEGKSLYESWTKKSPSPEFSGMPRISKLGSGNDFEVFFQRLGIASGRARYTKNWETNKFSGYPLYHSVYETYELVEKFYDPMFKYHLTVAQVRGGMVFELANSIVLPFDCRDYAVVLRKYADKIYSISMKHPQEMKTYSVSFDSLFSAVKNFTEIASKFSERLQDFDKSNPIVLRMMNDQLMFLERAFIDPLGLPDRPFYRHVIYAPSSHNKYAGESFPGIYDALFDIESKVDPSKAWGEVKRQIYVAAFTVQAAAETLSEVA

With `O=C(O)CC[C@H](NC(=O)N[C@@H](CCCCNC(=O)[C@H](Cc1ccc2ccccc2c1)NC(=O)C1CCC(CNC(=O)CN2CCN(CC(=O)O)CCN(CC(=O)O)CCN(CC(=O)O)CC2)CC1)C(=O)O)C(=O)O` (stereo partly drawn) [Example C-1, (((S)-1-carboxy-5-((S)-3-(naphthalen-2-yl)-2-((1r,4S)-4-((2-(4,7,10-tris(carboxymethyl)-1,4,7,10-tetraazacyclododecan-1-yl)acetamido)methyl)cyclohexane-1-carboxamido)propanamido)pentyl)carbamoyl)-L-glutamic acid tetra(trifluoroacetic acid), reference compound] the “% Remaining 0 min” value ([1]; 0 min) was 100%, the “% Remaining 1 h” value ([1]; 1 h) was 100% and the “% Remaining 4 h” value ([1]; 4 h) was 100%. For the same compound, the “% Remaining 24 h” value ([1]; 24 h) was 100%, the “% Remaining 48 h” value ([1]; 48 h) was 100% and the “% Remaining 72 h” value ([1]; 72 h) was 100%. For the same compound, the “T½ (h)” value ([1]; * = value obtained using nonlinear regression) was “Stable”, the “T/K at 4 h (tumor uptake/kidney uptake)” value ([2]; 4 h) was 7.0 and the “T at 24 h (tumor uptake)” value ([2]; 24 h) was 10.4. For the same compound, the “T/K at 24 h (tumor uptake/kidney uptake)” value ([2]; 24 h) was 57, the “T at 96 h (tumor uptake)” value ([2]; 96 h) was 7.3 and the “T/K at 96 h (tumor uptake/kidney uptake)” value ([2]; 96 h) was 182. The “Relative Binding Affinity” value (PSMA; based on the mean value of the IC50 number) was 1.00, the “LogIC50 Mean” value (PSMA; log10 of IC50 (negative values), nonlin fit, LNCaP cells, ^125I-C-8 radioligand) was −8.544 and the IC50 (PSMA; nonlin fit, LNCaP cells, ^125I-C-8 radioligand, scientific notation, unit inferred) was 2.86 nM. For the same compound, the “Relative Binding Affinity” value (PSMA; relative) was 1.00, the “T/K at 4 h (tumor uptake/kidney uptake)” value (LNCap tumor-bearing mice; 4 h) was 2.52 and the “T at 24 h (tumor uptake)” value (LNCap tumor-bearing mice; 24 h) was 10.0. The “T/K at 24 h (tumor uptake/kidney uptake)” value (LNCap tumor-bearing mice; 24 h) was 7.04, the “T at 96 h (tumor uptake)” value (LNCap tumor-bearing mice; 96 h) was 10.1 and the “T/K at 96 h (tumor uptake/kidney uptake), *value at 72 h” value (LNCap tumor-bearing mice; value at 72 h) was 15.5*.
